Laboratory results taken from patent US20230210853A1 (Halia Therapeutics, Inc., priority 2020, published 2023).

Target: T1, full-length recombinant human NEK7 (Homo sapiens, UniProt Q8TDX7)
T1 construct: full-length recombinant human NEK7; GST (N); purchased SignalChem N09-10G; host or cells: Sf9 insect cells (baculovirus)
Experiment: NEK7 enzymatic assay ([33P]-ATP, casein substrate)
Assay type: biochemical
Details: Table 2e; recombinant human NEK7, casein substrate
How it was run: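 GST-tagged enzyme, baculovirus-expressed in Sf9 cells, was mixed with casein in 20 mM Hepes pH 7.5, 10 mM MgCl2, 1 mM EGTA, 0.02% Brij35, 2 mM DTT, 1% DMSO. Compounds (3-fold series, 10 μM–0.5 nM) were preincubated 20 min at RT, then [33P]-ATP was added for 2 h at RT. P81 filter-bound radioactivity was expressed as % of vehicle activity and fitted to IC50.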

T1 sequence (Q8TDX7 whole entry): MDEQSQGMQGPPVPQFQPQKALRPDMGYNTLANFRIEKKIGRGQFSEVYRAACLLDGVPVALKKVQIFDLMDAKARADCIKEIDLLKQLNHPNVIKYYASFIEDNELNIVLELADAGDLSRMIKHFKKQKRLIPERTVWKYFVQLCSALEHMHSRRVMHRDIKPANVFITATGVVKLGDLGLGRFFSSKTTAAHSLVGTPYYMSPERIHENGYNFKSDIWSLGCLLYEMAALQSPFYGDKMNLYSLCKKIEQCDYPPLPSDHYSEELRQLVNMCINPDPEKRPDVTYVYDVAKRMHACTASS

SMILES	IC50
CN1CCCN(Cc2ccc(NC(=O)Nc3ccc(Oc4ccnc5[nH]cc(Cl)c45)cc3F)cc2C(F)(F)F)CC1 [Ie-17, 1-(4-((3-chloro-1H-pyrrolo[2,3-b]pyridin-4-yl)oxy)-2-fluorophenyl)-3-(4-((4-methyl-1,4-diazepan-1-yl)methyl)-3-(trifluoromethyl)phenyl)urea]	> 1500 nM
CN1C[C@@H]2CN(Cc3ccc(NC(=O)Nc4ccc(Oc5ccnc6[nH]cc(Cl)c56)cc4F)cc3C(F)(F)F)C[C@@H]2C1 [Ie-18, 1-(4-((3-chloro-1H-pyrrolo[2,3-b]pyridin-4-yl)oxy)-2-fluorophenyl)-3-(4-(((3aR,6aS)-5-methylhexahydropyrrolo[3,4-c]pyrrol-2(1H)-yl)methyl)-3-(trifluoromethyl)phenyl)urea]	> 1500 nM
CN1CCC(Cc2ccc(NC(=O)Nc3ccc(Oc4ccnc5[nH]cc(Cl)c45)cc3F)cc2C(F)(F)F)CC1 [Ie-19, 1-(4-((3-chloro-1H-pyrrolo[2,3-H]pyridin-4-yl)oxy)-2-fluorophenyl)-3-(4-((1-methylpiperidin-4-yl)methyl)-3-(trifluoromethyl)phenyl)urea]	501 to 1500 nM
CN(C)C1CCN(Cc2ccc(NC(=O)Nc3ccc(Oc4ccnc5[nH]cc(Cl)c45)cc3F)cc2C(F)(F)F)C1 (stereo not drawn) [Ie-21, 1-(4-((3-chloro-1H-pyrrolo[2,3-b]pyridin-4-yl)oxy)-2-fluorophenyl)-3-(4-((3-(dimethylamino)pyrrolidin-1-yl)methyl)-3-(trifluoromethyl)phenyl)urea]	> 1500 nM
CN1CCN(Cc2ccc(NC(=O)Nc3ccc(Oc4ccnc5[nH]cc(Cl)c45)cc3F)cc2C(F)F)CC1 [Ie-22, 1-(4-((3-chloro-1H-pyrrolo[2,3-b]pyridin-4-yl)oxy)-2-fluorophenyl)-3-(3-(difluoromethyl)-4-((4-methylpiperazin-1-yl)methyl)phenyl)urea]	501 to 1500 nM
CCN1CCN(Cc2ccc(NC(=O)Nc3ccc(Oc4ccnc5[nH]cc(Cl)c45)cc3F)cc2C(F)F)CC1 [Ie-23, 1-(4-((3-chloro-1-pyrrolo[2,3-b]pyridin-4-yl)oxy)-2-fluorophenyl)-3-(3-(difluoromethyl)-4-((4-ethylpiperazin-1-yl)methyl)phenyl)urea]	501 to 1500 nM
Cc1cn(-c2ccc(NC(=O)Nc3ccc(Oc4ccnc5[nH]cc(Cl)c45)cc3F)cc2C(F)(F)F)cn1 [Ie-24, 1-(4-((3-chloro-1H-pyrrolo[2,3-b]pyridin-4-yl)oxy)-2-fluorophenyl)-3-(4-(4-methyl-1H-imidazol-1-yl)-3-(trifluoromethyl)phenyl)urea]	301 to 500 nM
CN1CCN(Cc2ccc(NC(=O)Nc3ccc(Oc4ccnc5[nH]c(Cl)c(Cl)c45)cc3F)cc2C(F)(F)F)CC1 [Ie-25, 1-(4-((2,3-dichloro-1H-pyrrolo[2,3-b]pyridin-4-yl)oxy)-2-fluorophenyl)-3-(4-((4-methylpiperazin-1-yl)methyl)-3-(trifluoromethyl)phenyl)urea]	301 to 500 nM
Cc1cc(Oc2ccnc3[nH]cc(Cl)c23)ccc1NC(=O)Nc1ccc(CN2CCN(C)CC2)c(C(F)(F)F)c1 [Ie-29]	> 1500 nM
Cc1cc(Oc2ccnc3[nH]c(Cl)c(Cl)c23)ccc1NC(=O)Nc1ccc(CN2CCN(C)CC2)c(C(F)(F)F)c1 [Ie-30, 1-(4-((2,3-dichloro-1H-pyrrolo[2,3-b]pyridin-4-yl)oxy)-2-methylphenyl)-3-(4-((4-methylpiperazin-1-yl)methyl)-3-(trifluoromethyl)phenyl)urea]	> 1500 nM
O=C(Nc1ccc(CN2CCC2)c(C(F)(F)F)c1)Nc1ccc(Oc2ccnc3[nH]cc(Cl)c23)cc1F [Ie-31, 1-(4-(azetidin-1-ylmethyl)-3-(trifluoromethyl)phenyl)-3-(4-((3-chloro-1H-pyrrolo[2,3-b]pyridin-4-yl)oxy)-2-fluorophenyl)urea]	> 1500 nM
O=C(Nc1ccc(CN2CC(F)(F)C2)c(C(F)(F)F)c1)Nc1ccc(Oc2ccnc3[nH]cc(Cl)c23)cc1F [Ie-32, 1-(4-((3-chloro-1H-pyrrolo[2,3-b]pyridin-4-yl)oxy)-2-fluorophenyl)-3-(4-((3,3-difluoroazetidin-1-yl)methyl)-3-(trifluoromethyl)phenyl)urea]	> 1500 nM
CN1C[C@H]2CC[C@@H](C1)N2Cc1ccc(NC(=O)Nc2ccc(Oc3ccnc4[nH]cc(Cl)c34)cc2F)cc1C(F)(F)F [Ie-33, 1-(4-((3-chloro-1H-pyrrolo[2,3-b]pyridin-4-yl)oxy)-2-fluorophenyl)-3-(4-(((1R,5S)-3-methyl-3,8-diazabicyclo[3.2.1]octan-8-yl)methyl)-3-(trifluoromethyl)phenyl)urea]	> 1500 nM
CN1CC2CCC1CN2Cc1ccc(NC(=O)Nc2ccc(Oc3ccnc4[nH]cc(Cl)c34)cc2F)cc1C(F)(F)F (stereo not drawn) [Ie-35, 1-(4-((3-chloro-1H-pyrrolo[2,3-b]pyridin-4-yl)oxy)-2-fluorophenyl)-3-(4-((5-methyl-2,5-diazabicyclo[2.2.2]octan-2-yl)methyl)-3-(trifluoromethyl)phenyl)urea]	> 1500 nM
COc1cc(CN2CCN(C)CC2)ccc1NC(=O)Nc1ccc(Oc2ccnc3[nH]cc(Cl)c23)cc1F [Ie-40, 1-(4-((3-chloro-1H-pyrrolo[2,3-b]pyridin-4-yl)oxy)-2-fluorophenyl)-3-(2-methoxy-4-((4-methylpiperazin-1-yl)methyl)phenyl)urea]	> 1500 nM
O=C(Nc1ccc(CN2CCN(CCO)CC2)c(C(F)(F)F)c1)Nc1ccc(Oc2ccnc3[nH]cc(Cl)c23)cc1F [Ie-41, 1-(4-((3-chloro-1H-pyrrolo[2,3-b]pyridin-4-yl)oxy)-2-fluorophenyl)-3-(4-((4-(2-hydroxyethyl)piperazin-1-yl)methyl)-3-(trifluoromethyl)phenyl)urea]	> 1500 nM
COCCN1CCN(Cc2ccc(NC(=O)Nc3ccc(Oc4ccnc5[nH]cc(Cl)c45)cc3F)cc2C(F)(F)F)CC1 [Ie-42, 1-(4-((3-chloro-1H-pyrrolo[2,3-b]pyridin-4-yl)oxy)-2-fluorophenyl)-3-(4-((4-(2-methoxyethyl)piperazin-1-yl)methyl)-3-(trifluoromethyl)phenyl)urea]	> 1500 nM
COc1cc(NC(=O)Nc2ccc(Oc3ccnc4[nH]cc(Cl)c34)cc2F)ccc1CN1CCN(C)CC1 [Ie-43, 1-(4-((3-chloro-1H-pyrrolo[2,3-b]pyridin-4-yl)oxy)-2-fluorophenyl)-3-(3-methoxy-4-((4-methylpiperazin-1-yl)methyl)phenyl)urea]	> 1500 nM
